# In US10828317B2, “Method of treating bacterial infections” (priority 2016, dated 2020):
# Where “and” joins values, the source holds several entries; their conditions need not be identical. Equal entries are not always repeated. Where two headings read alike, the source gives them in different places.
# Experiments:
# K. pneumoniae EN0262 = conditions: commercial antibiotics; data provided by IMBIM, BMC, Uppsala University; cited from earlier work
# S. flexneri APV00907 = assay: MIC and antibiogram; assay type: cell-based; conditions: for Antibiogram category (resistance pattern): letter before the MIC
# From the text: (§1) Inhibition of Heliobacter is important in view of increasing resistance and its association to gastric cancer.
# S. flexneri APV00906 = assay: microbe, parasite or virus in culture; assay type: cell-based; conditions: for Antibiogram category (resistance pattern): letter before the MIC
# From the text: as §1
# S. sonnei APV00908 = assay: MIC and antibiogram; assay type: cell-based; conditions: for Antibiogram category (resistance pattern): letter before the MIC
# P. mirabilis EN0457 = assay: MIC; assay type: cell-based, Proteus mirabilis; conditions: Proteus mirabilis, EN0457, Combination 2 AZT+trimethoprim+uridine+thymidine, Table 16; read-out: MIC
# [1] = test system: A. pittii or A. nosocomialis EN0180; assay: MIC; assay type: cell-based, Acinetobacter pittii or nosocomialis; conditions: read-out: MIC
# S. aureus EN008 = assay: MIC, Gram-positive control; assay type: cell-based, Staphylococcus aureus; conditions: Staphylococcus aureus, EN008, Combination 2 AZT+trimethoprim+uridine+thymidine, Table 16; read-out: MIC
# P. aeruginosa EN014 = assay: MIC, WT; assay type: cell-based, Pseudomonas aeruginosa; conditions: Pseudomonas aeruginosa, read-out: MIC
# S. aureus strain no 13 = assay: MIC vs S. aureus LMG 15975, MRSA; conditions: for MIC: Staphylococcus aureus; for MIC BrdUrd: 2 μg/ml of trimethoprim
# E. coli = assay: Murine peritonitis model; assay type: in vivo, mice; parameters: score at sampling: scale not given here; conditions: for CFU/ml PF / log CFU/ml PF / score at sampling: per mouse
# E. coli strain no 2 = assay: MIC vs E. coli LMG 15862, penicillin resistant; conditions: Escherichia coli, Uridine 0 μg/ml
# Citrobacter sp. EN0465 = assay: MIC; assay type: cell-based; conditions: Citrobacter, read-out: MIC
# S. marescens EN0454 = assay: MIC; assay type: cell-based, Serratia marescens; conditions: Serratia, EN0454, Combination 2 AZT+trimethoprim+uridine+thymidine, Table 16; read-out: MIC
# A. baumannii EN016 = assay: MIC, WT; assay type: cell-based, Acinetobacter baumannii; conditions: Acinetobacter baumannii, read-out: MIC
# P. mirabilis ST19 EN0445 = assay: MIC; assay type: cell-based, Proteus mirabilis; conditions: Proteus mirabilis, read-out: MIC
# M. luteus EN0455 = assay: MIC; assay type: cell-based, Micrococcus luteus; conditions: Micrococcus luteus, EN0455, Combination 2 AZT+trimethoprim+uridine+thymidine, Table 16; read-out: MIC
# P. aeruginosa EN0459 = assay: MIC; assay type: cell-based, Pseudomonas aeruginosa; conditions: Pseudomonas aeruginosa, read-out: MIC
# P. aeruginosa EN0460 = assay: MIC; assay type: cell-based, Pseudomonas aeruginosa; conditions: Pseudomonas aeruginosa, read-out: MIC
# P. aeruginosa EN0422 = assay: MIC; assay type: cell-based, Pseudomonas aeruginosa; conditions: Pseudomonas aeruginosa, read-out: MIC
# A. baumannii EN007 = assay: MIC, WT (EN007 = EN0007); assay type: cell-based, Acinetobacter baumannii
# E. coli EN002 = assay: MIC, DtoIC; assay type: cell-based, Escherichia coli; conditions: Escherichia coli, read-out: MIC
# P. aeruginosa EN004 = assay: MIC, WT (EN004 = EN0004); assay type: cell-based, Pseudomonas aeruginosa
# [2] = combination AZT+trimethoprim+uridine, Table 17B
molecule,measurement,setting,value
"NCC[C@H](O)C(=O)N[C@@H]1C[C@H](N)[C@@H](O[C@H]2O[C@H](CN)[C@@H](O)[C@H](O)[C@H]2O)[C@H](O)[C@H]1O[C@H]1O[C@H](CO)[C@@H](O)[C@H](N)[C@H]1O [AMK, amikacin]",MIC,K. pneumoniae EN0262,8 µg/mL
same,Antibiogram category (resistance pattern),S. flexneri APV00907,R*
same,Antibiogram category (resistance pattern),S. flexneri APV00906,R*
same,Antibiogram category (resistance pattern),S. sonnei APV00908,R*
"C[C@H]1[C@H](NC(=O)/C(=N\OC(C)(C)C(=O)O)c2csc(N)n2)C(=O)N1S(=O)(=O)O [ATM, aztreonam]",MIC,K. pneumoniae EN0262,>16 µg/mL
"Cc1cn([C@H]2C[C@H](N=[N+]=[N-])[C@@H](CO)O2)c(=O)[nH]c1=O [AZT, 3′-azido-3′-deoxythymidine]",MIC,P. mirabilis EN0457,> 4 µg/mL
same,MIC,"[1]; Combination 1 AZT+trimethoprim+uridine, Table 16",> 4 µg/mL
same,MIC,"[1]; Combination 2 AZT+trimethoprim+uridine+thymidine, Table 16",> 4 µg/mL
same,MIC,"[1]; combination AZT+trimethoprim+uridine, Table 6",> 4 µg/mL
same,MIC,S. aureus EN008,> 4 µg/mL
same,MIC,"P. aeruginosa EN014; EN014, Combination 1 AZT+trimethoprim+uridine, Table 16",> 4 µg/mL
same,MIC,"P. aeruginosa EN014; EN014, Combination 2 AZT+trimethoprim+uridine+thymidine, Table 16",> 4 µg/mL
same,MIC,"P. aeruginosa EN014; EN014, combination AZT+trimethoprim+uridine, Table 6",> 4 µg/mL
same,MIC,"S. aureus strain no 13; NO13, read-out: MIC AZT, Iclaprim 0, Uridine 0 μg/ml",> 32 µg/mL
same,MIC,"S. aureus strain no 13; NO13, read-out: MIC AZT, Iclaprim 0, Uridine 100 μg/ml",> 32 µg/mL
same,MIC,"S. aureus strain no 13; NO13, read-out: MIC AZT, Iclaprim 0, Uridine 300 μg/ml",> 32 µg/mL
same,MIC,"S. aureus strain no 13; NO13, read-out: MIC AZT, Iclaprim 0, Uridine 500 μg/ml",> 32 µg/mL
same,MIC,"S. aureus strain no 13; NO13, read-out: MIC AZT, Iclaprim 0.03, Uridine 300 μg/ml",≤ 0.008 µg/mL
same,MIC,"S. aureus strain no 13; NO13, read-out: MIC AZT, Iclaprim 0.03, Uridine 500 μg/ml",≤ 0.008 µg/mL
same,CFU/ml PF,E. coli; AZT 30 mg/kg,1.65E+04 CFU/ml and 4.25E+05 CFU/ml and 1.10E+07 CFU/ml and 6.75E+05 CFU/ml
same,log CFU/ml PF,E. coli; AZT 30 mg/kg,4.22 log CFU/ml and 5.63 log CFU/ml and 7.04 log CFU/ml and 5.83 log CFU/ml
same,score at sampling,E. coli; AZT 30 mg/kg,1
same,inhibition in mice infected with E. coli (in words),E. coli; murine peritonitis model,slight inhibition
same,MIC,"E. coli strain no 2; NO2, read-out: MIC AZT, Iclaprim 0.1",> 8 µg/mL
same,MIC,"E. coli strain no 2; NO2, read-out: MIC AZT, Iclaprim 0.2",> 8 µg/mL
same,MIC,"Citrobacter sp. EN0465; SP.EN0465, Combination 1 AZT+trimethoprim+uridine, Table 16",> 4 µg/mL
same,MIC,"Citrobacter sp. EN0465; SP.EN0465, Combination 2 AZT+trimethoprim+uridine+thymidine, Table 16",> 4 µg/mL
same,MIC,"Citrobacter sp. EN0465; SP.EN0465, combination AZT+trimethoprim+uridine, Table 6",> 4 µg/mL
same,MIC,S. marescens EN0454,> 4 µg/mL
same,MIC,"A. baumannii EN016; EN016, Combination 1 AZT+trimethoprim+uridine, Table 16",> 4 µg/mL
same,MIC,"A. baumannii EN016; EN016, Combination 2 AZT+trimethoprim+uridine+thymidine, Table 16",> 4 µg/mL
same,MIC,"A. baumannii EN016; EN016, combination AZT+trimethoprim+uridine, Table 6",> 4 µg/mL
same,MIC,"P. mirabilis ST19 EN0445; ST19EN0445, Combination 2 AZT+trimethoprim+uridine+thymidine, Table 16",> 4 µg/mL
same,MIC,"P. mirabilis ST19 EN0445; ST19EN0445, combination AZT+trimethoprim+uridine, Table 6",> 4 µg/mL
same,MIC,M. luteus EN0455,> 4 µg/mL
same,MIC,"P. aeruginosa EN0459; EN0459, Combination 1 AZT+trimethoprim+uridine, Table 16",> 4 µg/mL
same,MIC,"P. aeruginosa EN0459; EN0459, Combination 2 AZT+trimethoprim+uridine+thymidine, Table 16",> 4 µg/mL
same,MIC,"P. aeruginosa EN0459; EN0459, combination AZT+trimethoprim+uridine, Table 6",> 4 µg/mL
same,MIC,"P. aeruginosa EN0460; EN0460, Combination 1 AZT+trimethoprim+uridine, Table 16",> 4 µg/mL
same,MIC,"P. aeruginosa EN0460; EN0460, Combination 2 AZT+trimethoprim+uridine+thymidine, Table 16",> 4 µg/mL
same,MIC,"P. aeruginosa EN0460; EN0460, combination AZT+trimethoprim+uridine, Table 6",> 4 µg/mL
same,MIC,"P. aeruginosa EN0422; EN0422, Combination 1 AZT+trimethoprim+uridine, Table 16",> 4 µg/mL
same,MIC,"P. aeruginosa EN0422; EN0422, Combination 2 AZT+trimethoprim+uridine+thymidine, Table 16",> 4 µg/mL
same,MIC,"P. aeruginosa EN0422; EN0422, combination AZT+trimethoprim+uridine, Table 6",> 4 µg/mL
same,MIC,"A. baumannii EN007; Acinetobacter baumannii, EN007, Combination 1 AZT+trimethoprim+uridine, Table 16, read-out: MIC",> 4 µg/mL
same,MIC,"A. baumannii EN007; Acinetobacter baumannii, EN007, Combination 2 AZT+trimethoprim+uridine+thymidine, Table 16, read-out: MIC",> 4 µg/mL
same,MIC,"A. baumannii EN007; Acinetobacter baumannii, EN007, combination AZT+trimethoprim+uridine, Table 6, read-out: MIC",> 4 µg/mL
same,MIC,A. baumannii EN007; [2],>4 µg/mL
same,MIC,"E. coli EN002; EN002, Combination 1 AZT+trimethoprim+uridine, Table 16",0.016 µg/mL
same,MIC,"E. coli EN002; EN002, combination AZT+trimethoprim+uridine, Table 6",0.016 µg/mL
same,MIC,"P. aeruginosa EN004; Pseudomonas aeruginosa, EN004, Combination 1 AZT+trimethoprim+uridine, Table 16, read-out: MIC",> 4 µg/mL
same,MIC,"P. aeruginosa EN004; Pseudomonas aeruginosa, EN004, Combination 2 AZT+trimethoprim+uridine+thymidine, Table 16, read-out: MIC",> 4 µg/mL
same,MIC,"P. aeruginosa EN004; Pseudomonas aeruginosa, EN004, combination AZT+trimethoprim+uridine, Table 6, read-out: MIC",> 4 µg/mL
same,MIC,P. aeruginosa EN004; [2],>4 µg/mL
O=c1[nH]c(=O)n([C@H]2C[C@H](O)[C@@H](CO)O2)cc1Br [BrdUrd],MIC BrdUrd,S. aureus strain no 13; uridine 10 μg/ml,≤2 µg/mL
same,MIC BrdUrd,S. aureus strain no 13; uridine 100 μg/ml,≤2 µg/mL
"CC(C)(O/N=C(\C(=O)N[C@@H]1C(=O)N2C(C(=O)[O-])=C(C[n+]3ccccc3)CS[C@H]12)c1csc(N)n1)C(=O)O [CAZ, ceftazidime]",MIC,K. pneumoniae EN0262,>32 µg/mL
same,Antibiogram category (resistance pattern),S. flexneri APV00906,|
"CO/N=C(\C(=O)N[C@@H]1C(=O)N2C(C(=O)O)=C(COC(C)=O)CS[C@H]12)c1csc(N)n1 [CTX, cefotaxime]",MIC,K. pneumoniae EN0262,>32 µg/mL
"O=C(O)c1cn(C2CC2)c2cc(N3CCNCC3)c(F)cc2c1=O [Ciprofloxacin, ciprofloxacin]",MIC,K. pneumoniae EN0262,>2 µg/mL
same,CFU/ml PF,E. coli; Ciprofloxacin 14 mg/kg,1.75E+03 CFU/ml and 2.50E+02 CFU/ml and 1.00E+03 CFU/ml (2×)
same,log CFU/ml PF,E. coli; Ciprofloxacin 14 mg/kg,3.24 log CFU/ml and 2.40 log CFU/ml and 3.00 log CFU/ml (2×)
same,score at sampling,E. coli; Ciprofloxacin 14 mg/kg,0
"CO/N=C(\C(=O)N[C@@H]1C(=O)N2C(C(=O)[O-])=C(C[N+]3(C)CCCC3)CS[C@H]12)c1csc(N)n1 [FEP, cefepime]",MIC,K. pneumoniae EN0262,>16 µg/mL
"COc1cc(Cc2cnc(N)nc2N)c2c(c1OC)OC(C1CC1)C=C2 (centres unmarked) [Iclaprim, iclaprim]",MIC,"S. aureus strain no 13; NO13, read-out: MIC Iclaprim, Uridine 0 μg/ml",> 16 µg/mL
same,MIC,"S. aureus strain no 13; NO13, read-out: MIC Iclaprim, Uridine 100 μg/ml",> 16 µg/mL
"C[C@@H](O)[C@H]1C(=O)N2C(C(=O)O)=C(S[C@@H]3CN[C@H](C(=O)N(C)C)C3)[C@H](C)[C@H]12 [MEM, meropenem]",MIC,K. pneumoniae EN0262,>8 µg/mL
"CN(C)c1cc(NC(=O)CNC(C)(C)C)c(O)c2c1C[C@H]1C[C@H]3[C@H](N(C)C)C(O)=C(C(N)=O)C(=O)[C@@]3(O)C(O)=C1C2=O [TGC, tigecycline]",MIC,K. pneumoniae EN0262,2 µg/mL
amoxicillin-clavulanic acid [AMC],MIC,K. pneumoniae EN0262,>64 µg/mL
same,Antibiogram MIC,S. flexneri APV00907,16 µg/mL
same,Antibiogram category (resistance pattern),S. flexneri APV00907,|
same,Antibiogram MIC,S. flexneri APV00906,4 µg/mL
same,Antibiogram MIC,S. sonnei APV00908,≤ 2 µg/mL
colistin [CST],MIC,K. pneumoniae EN0262,1 µg/mL
gentamicin,MIC,K. pneumoniae EN0262,1 µg/mL
same,Antibiogram MIC,S. flexneri APV00907,≤ 1 µg/mL
same,Antibiogram category (resistance pattern),S. flexneri APV00907,R*
same,Antibiogram MIC,S. flexneri APV00906,4 µg/mL
same,Antibiogram category (resistance pattern),S. flexneri APV00906,R*
same,Antibiogram MIC,S. sonnei APV00908,≤ 1 µg/mL
same,Antibiogram category (resistance pattern),S. sonnei APV00908,R*
piperacillin-tazobactam [TZP],MIC,K. pneumoniae EN0262,64 µg/mL
same,Antibiogram MIC,S. flexneri APV00907,≤ 4 µg/mL
same,Antibiogram MIC,S. flexneri APV00906,≤ 4 µg/mL
same,Antibiogram MIC,S. sonnei APV00908,≤ 4 µg/mL
trimethoprim-sulfamethoxazole [SXT],MIC,K. pneumoniae EN0262,4 µg/mL
same,Antibiogram MIC,S. flexneri APV00907,≥ 320 µg/mL
same,Antibiogram MIC,S. flexneri APV00906,≥ 320 µg/mL
same,Antibiogram MIC,S. sonnei APV00908,≥ 160 µg/mL
